In ChEMBL document CHEMBL1158865, “Mueggelone, a novel inhibitor of fish development from the fresh water cyanobacterium Aphanizomenon flos-aquae” (1997):
Active and inactive are the calls of the source. The rule behind the calls is not given here.

What was measured:
Danio rerio [1] = species: Danio rerio; test: Inhibition of larval development in zebra fish assessed as mortality at 10 ug/mL after 24 hrs; format: functional; parameters: scale not given: the % may be the effect or the level left
Danio rerio [2] = species: Danio rerio; test: Inhibition of larval development in zebra fish assessed as mortality at 10 ug/mL after 48 hrs; format: functional; parameters: scale not given: the % may be the effect or the level left
Danio rerio [3] = species: Danio rerio; test: Inhibition of larval development in zebra fish assessed as retardation of blood circulatory system development at 10 ug/mL after 24 hrs; format: functional, organism-based
Danio rerio [4] = species: Danio rerio; test: Inhibition of larval development in zebra fish assessed as retardation of blood circulatory system development at 10 ug/mL after 32 hrs; format: functional, organism-based
Danio rerio [5] = test: Inhibition of larval development in zebra fish assessed as induction of edema in heart at 10 ug/mL after 3 days; format: functional, organism-based
Danio rerio [6] = species: Danio rerio; test: Inhibition of larval development in zebra fish assessed as induction of thrombosis in heart at 10 ug/mL after 3 days; format: functional, organism-based
Danio rerio [7] = species: Danio rerio; test: Inhibition of larval development in zebra fish at 1 ug/mL; format: functional, organism-based
Danio rerio [8] = test: Inhibition of larval development in zebra fish assessed as induction of edema in heart at 100 ug/mL after 5 days; format: functional, organism-based
Danio rerio [9] = test: Inhibition of larval development in zebra fish assessed as induction of edema in heart at 100 ug/mL after 3 days; format: functional, organism-based
Danio rerio [10] = species: Danio rerio; test: Inhibition of larval development in zebra fish assessed as tail bending at 100 ug/mL after 3 days; format: functional; parameters: scale not given: the % may be the effect or the level left
Danio rerio [11] = species: Danio rerio; test: Inhibition of larval development in zebra fish assessed as tail bending at 100 ug/mL after 5 days; format: functional, organism-based
Danio rerio [12] = species: Danio rerio; test: Inhibition of larval development in zebra fish at 10 ug/mL; format: functional, organism-based
Danio rerio [13] = species: Danio rerio; test: Inhibition of larval development in zebra fish assessed as effect on larval mortality at 10 ug/mL; format: functional, organism-based
Danio rerio [14] = species: Danio rerio; test: Inhibition of larval development in zebra fish assessed as effect on larval mortality at 100 ug/mL; format: functional, organism-based

Structure (SMILES)	Activity (Danio rerio [1]) [%]	Activity (Danio rerio [2]) [%]	Activity (Danio rerio [3])	Activity (Danio rerio [4])	Activity (Danio rerio [5])	Activity (Danio rerio [6])	Activity (Danio rerio [7])	Activity (Danio rerio [8])	Activity (Danio rerio [9])	Activity (Danio rerio [10]) [%]	Activity (Danio rerio [11])	Activity (Danio rerio [12])	Activity (Danio rerio [13])	Activity (Danio rerio [14])
CC/C=C\C[C@@H]1O[C@H]1/C=C/C1CCCCCCCC(=O)O1 (relative stereo) [MUEGGELONE]	45	45	Active	Active	Active	Active	inactive							
C=C(C)[C@@H]1CC[C@]2(C)CC[C@]3(C)[C@H](CC[C@@H]4[C@@]5(C)CC[C@H](OC(C)=O)C(C)(C)[C@@H]5CC[C@]43C)[C@@H]12 [LUPENYL ACETATE]								Active	Active	30	Active	inactive	inactive	inactive
